One test concerns the target USP1-UAF1 (Homo sapiens, UniProt O94782). The test is described as follows: Ubiquitin Rhodamine assay for USP1-UAF1 activity. Format: biochemical. Here is the method:
Certain compounds of the disclosure were assessed for USP1-UAF1 activity in a Ubiquitin Rhodamine assay as described in Example 135.

The test system of test [1] is MDA-MB-436 (BRCA1 mutant) cell line. The test can be described thus: Viability assay in BRCA1 mutant cell line MDA-MB-436. The conditions noted are these: Homo sapiens, BRCA1 mutant MDA-MB-436, read-out: MDA-MB-436 rel IC50. Format: cell-based. From the text: (§1) Table 1 also indicates IC50 values in a viability assay for a non-isogenic pair of BRCA1 mutant (column 5—MDA-MB-436) and BRCA1 WT (column 6—HCC1954) cell lines. These values indicate the effect of treatment with compound on cell survival.

Test [2] deals with HCC1954 (BRCA1 WT) cell line. The test is described as follows: Viability assay in BRCA1 WT cell line HCC1954. The test is classed as cell-based. The conditions noted are these: for IC50: Homo sapiens, read-out: HCC 1954 IC50 rel IC50.
Description: as §1

The next test relates to monoubiquitinated PCNA. The test can be described thus: AlphaLISA assay measuring monoubiquitinated PCNA in MDA-MB-436. Format: cell-based. The conditions noted are these: Homo sapiens, read-out: Alpha LISA IC50. From the text:
Table 1 also indicates IC50 values for exemplary compounds in an AlphaLISA assay measuring monoubiquitinated PCNA in a BRCA1 mutant cell line (MDA-MB-436; column 7).
(In general: In Alpha technology, singlet oxygen from a donor bead excites a nearby acceptor bead.)

The structures appear in SMILES notation. Read-outs that look alike come from different tables or passages of the source.

USP1-UAF1, sequence (O94782 whole entry): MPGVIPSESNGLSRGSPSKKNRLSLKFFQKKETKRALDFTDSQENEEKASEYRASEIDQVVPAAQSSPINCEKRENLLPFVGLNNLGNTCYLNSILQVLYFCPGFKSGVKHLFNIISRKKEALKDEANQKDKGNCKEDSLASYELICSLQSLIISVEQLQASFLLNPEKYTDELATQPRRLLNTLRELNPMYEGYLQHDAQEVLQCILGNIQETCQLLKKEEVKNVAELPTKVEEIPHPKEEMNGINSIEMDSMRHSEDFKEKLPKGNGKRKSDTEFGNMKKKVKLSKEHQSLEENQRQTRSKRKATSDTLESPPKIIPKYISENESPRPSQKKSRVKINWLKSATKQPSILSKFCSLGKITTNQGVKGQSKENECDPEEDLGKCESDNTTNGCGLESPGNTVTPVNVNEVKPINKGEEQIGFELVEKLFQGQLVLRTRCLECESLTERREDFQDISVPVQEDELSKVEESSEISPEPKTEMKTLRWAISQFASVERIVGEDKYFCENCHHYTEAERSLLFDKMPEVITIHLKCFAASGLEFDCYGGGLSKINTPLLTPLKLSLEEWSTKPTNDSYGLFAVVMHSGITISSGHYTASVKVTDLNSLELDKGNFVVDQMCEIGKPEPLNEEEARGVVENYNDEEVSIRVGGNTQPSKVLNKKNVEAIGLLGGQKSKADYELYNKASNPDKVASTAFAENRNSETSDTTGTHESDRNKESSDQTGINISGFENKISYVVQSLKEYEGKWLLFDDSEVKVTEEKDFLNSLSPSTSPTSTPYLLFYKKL
USP1-UAF1, sequence (Q8TAF3 whole entry partner): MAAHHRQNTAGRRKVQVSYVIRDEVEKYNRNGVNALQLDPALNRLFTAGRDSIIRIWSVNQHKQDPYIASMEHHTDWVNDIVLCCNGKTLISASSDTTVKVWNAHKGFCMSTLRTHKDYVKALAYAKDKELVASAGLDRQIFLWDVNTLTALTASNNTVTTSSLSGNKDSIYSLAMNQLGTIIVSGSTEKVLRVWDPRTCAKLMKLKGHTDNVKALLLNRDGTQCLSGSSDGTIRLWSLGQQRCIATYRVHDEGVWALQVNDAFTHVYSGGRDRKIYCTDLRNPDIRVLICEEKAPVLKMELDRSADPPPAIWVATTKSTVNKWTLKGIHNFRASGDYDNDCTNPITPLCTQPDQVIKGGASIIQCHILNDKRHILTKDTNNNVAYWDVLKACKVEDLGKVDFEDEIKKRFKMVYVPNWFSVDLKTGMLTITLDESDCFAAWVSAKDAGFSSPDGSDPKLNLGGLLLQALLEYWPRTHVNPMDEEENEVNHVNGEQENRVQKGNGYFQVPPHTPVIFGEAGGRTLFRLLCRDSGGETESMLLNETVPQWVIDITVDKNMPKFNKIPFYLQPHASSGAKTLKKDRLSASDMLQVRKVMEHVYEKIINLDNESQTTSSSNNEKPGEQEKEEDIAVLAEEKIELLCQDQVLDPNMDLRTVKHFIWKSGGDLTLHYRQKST

For `COc1ncnc(C2CC2)c1-c1ncc2[nH]c(CN(C)C)c(Cc3ccc(-c4nc(C(F)(F)F)cn4C)cc3)c2n1` [Compound 176, 1-[2-(4-cyclopropyl-6-methoxy-pyrimidin-5-yl)-7-[[4-[1-methyl-4-(trifluoromethyl)imidazol-2-yl]phenyl]methyl]-5H-pyrrolo[3,2-d]pyrimidin-6-yl]-N,N-dimethyl-methanamine], the half-maximal inhibitory concentration (IC50) (in general, the point on the concentration scale where inhibition reaches its midpoint) against USP1-UAF1 was 30 to 100 nM; in test [1] (MDA-MB-436, viability), less than 100 nM; in test [2], no less than 10000 nM; with monoubiquitinated PCNA, less than 100 nM.

On to `COc1ncnc(C2CC2)c1-c1ncc2c(n1)c(Cc1ccc(-n3nc(C#N)cc3C)cc1)cn2C` [Compound 107, 1-[4-[[2-(4-cyclopropyl-6-methoxy-pyrimidin-5-yl)-5-methyl-pyrrolo[3,2-d]pyrimidin-7-yl]methyl]phenyl]-5-methyl-pyrazole-3-carbonitrile], for which the 50% inhibitory concentration (IC50) against USP1-UAF1 is 30 to 100 nM; in test [1] (MDA-MB-436, viability) it was less than 100 nM; in test [2] it was no less than 10000 nM; with monoubiquitinated PCNA, less than 100 nM.

In the case of `COc1ncnc(C2CC2)c1-c1ncc2[nH]c(C)c(Cc3ccc(-c4nc(C(F)(F)F)cn4C)cc3)c2n1` [Compound 188], the 50% inhibitory concentration (IC50) on USP1-UAF1 was less than 30 nM; in test [1] (MDA-MB-436, viability), less than 100 nM; in test [2] it was no less than 10000 nM; in the test with monoubiquitinated PCNA, less than 100 nM.

Turning to `COc1ncnc(C2CC2)c1-c1ncc2c(n1)c(Cc1ccc(-c3nc(C(F)(F)F)cn3C)cc1)nn2C(C)C` (single isomer, unassigned) [Compound 98, 5-(4-cyclopropyl-6-methoxy-pyrimidin-5-yl)-1-isopropyl-3-[[4-[1-methyl-4-(trifluoromethyl)imidazol-2-yl]phenyl]methyl]pyrazolo[4,3-d]pyrimidine], the IC50 on USP1-UAF1 is 30 to 100 nM; in test [1] (MDA-MB-436, viability), less than 100 nM; in test [2], no less than 10000 nM; with monoubiquitinated PCNA, less than 100 nM.

On to `COc1ncnc(C2CC2)c1-c1ncc2[nH]nc(Cc3ccc(-c4nc(C(F)(F)F)cn4C)cc3C)c2n1` [Compound 196], for which the IC50 is less than 30 nM against USP1-UAF1; less than 100 nM in test [1] (MDA-MB-436, viability); no less than 10000 nM in test [2]; less than 100 nM in the test with monoubiquitinated PCNA.

Turning to `COCCc1[nH]c2cnc(-c3c(OC)ncnc3C3CC3)nc2c1Cc1ccc(-c2nc(C(F)(F)F)cn2C)cc1` [Compound 195, 2-(4-cyclopropyl-6-methoxy-pyrimidin-5-yl)-6-(2-methoxyethyl)-7-[[4-[-methyl-4-(trifluoromethyl)imidazol-2-yl]phenyl]methyl]-5H-pyrrolo[3,2-d]pyrimidine], the IC50 at USP1-UAF1 is less than 30 nM; in test [1] (MDA-MB-436, viability), less than 100 nM; in test [2] it was no less than 10000 nM; with monoubiquitinated PCNA it was less than 100 nM.

Take `Cn1cc(C(F)(F)F)nc1-c1ccc(Cc2c(CN)[nH]c3cnc(-c4cccnc4C4CC4)nc23)cc1` [Compound 186]: the IC50 against USP1-UAF1 lay in the range of 30 to 100 nM; in test [1] (MDA-MB-436, viability) it was 100 to 250 nM; in test [2] it was 250 to 10000 nM; in the test on monoubiquitinated PCNA, 100 to 250 nM.

For the compound `CC(C)c1ccccc1-c1ncc2[nH]cc(Cc3ccc(-c4nc(C(F)(F)F)cn4C)cc3)c2n1` [Compound 10, 2-(2-isopropylphenyl)-7-[[4-[1-methyl-4-(trifluoromethyl)imidazol-2-yl]phenyl]methyl]-5H-pyrrolo[3,2-d]pyrimidine], the IC50 is less than 30 nM on USP1-UAF1; less than 100 nM in test [1] (MDA-MB-436, viability); no less than 10000 nM in test [2]; less than 100 nM in the test on monoubiquitinated PCNA.

For the compound `COc1ncnc(C2CC2(F)F)c1-c1ncc2[nH]cc(Cc3ccc(-c4nc(C(F)(F)F)cn4C)cc3)c2n1` (stereo not drawn) [Compound 147, 2-[4-(2,2-difluorocyclopropyl)-6-methoxy-pyrimidin-5-yl]-7-[[4-[1-methyl-4-(trifluoromethyl)imidazol-2-yl]phenyl]methyl]-5H-pyrrolo[3,2-d]pyrimidine], the IC50 at USP1-UAF1 was less than 30 nM; in test [1] (MDA-MB-436, viability), less than 100 nM; in test [2] it was no less than 10000 nM; in the test on monoubiquitinated PCNA it was less than 100 nM.

In the case of `COc1ncnc(C2CC2)c1-c1ncc2c(n1)c(Cc1ccc(-c3nc(C(F)(F)F)cn3C)cc1)cn2C(C)=O` [Compound 93, 1-[2-(4-cyclopropyl-6-methoxy-pyrimidin-5-yl)-7-[[4-[1-methyl-4-(trifluoromethyl)imidazol-2-yl]phenyl]methyl]pyrrolo[3,2-d]pyrimidin-5-yl]ethanone], the IC50 against USP1-UAF1 was 30 to 100 nM; in test [1] (viability), less than 100 nM; in test [2], no less than 10000 nM; in the test with monoubiquitinated PCNA, less than 100 nM.

In the case of `COc1ncnc(C2CC2)c1-c1ncc2[nH]cc(C3(c4ccc(-c5nc(C(F)(F)F)cn5C)cc4)CC3)c2n1` [Compound 47, 2-(4-cyclopropyl-6-methoxy-pyrimidin-5-yl)-7-[1-[4-[1-methyl-4-(trifluoromethyl)imidazol-2-yl]phenyl]cyclopropyl]-5H-pyrrolo[3,2-d]pyrimidine], the IC50 was 30 to 100 nM against USP1-UAF1; 250 to 10000 nM in test [1] (MDA-MB-436, viability); no less than 10000 nM in test [2]; 100 to 250 nM with monoubiquitinated PCNA.

Turning to `CCn1cc(C(F)(F)F)nc1-c1ccc(Cc2nn(C)c3cnc(-c4c(OC)ncnc4C4CC4)nc23)cc1` [Compound 106, 5-(4-cyclopropyl-6-methoxypyrimidin-5-yl)-3-(4-(1-ethyl-4-(trifluoromethyl)-1H-imidazol-2-yl)benzyl)-1-methyl-1H-pyrazolo[4,3-d]pyrimidine], the IC50 at USP1-UAF1 was less than 30 nM; in test [1] (MDA-MB-436, viability) it was less than 100 nM; in test [2], no less than 10000 nM; with monoubiquitinated PCNA, less than 100 nM.

Take `COc1ncnc(C2CC2)c1-c1ncc2[nH]cc(Cc3ccc(-c4nc(C(F)(F)F)cn4C)cc3C)c2n1` [Compound 203, 2-(4-cyclopropyl-6-methoxy-pyrimidin-5-yl)-7-[[2-methyl-4-[1-methyl-4-(trifluoromethyl)imidazol-2-yl]phenyl]methyl]-5H-pyrrolo[3,2-d]pyrimidine]: the half-maximal inhibitory concentration (IC50) is less than 30 nM against USP1-UAF1; less than 100 nM in test [1] (MDA-MB-436, viability); no less than 10000 nM in test [2]; less than 100 nM in the test on monoubiquitinated PCNA.

For the compound `COc1ncnc(C2CC2)c1-c1ncc2[nH]cc([C@@H](c3ccc(-c4nc(C(F)(F)F)cn4C)cc3)C(C)C)c2n1` (single isomer, unassigned) [Compound 151], the concentration for half-maximal inhibition (IC50) was 30 to 100 nM against USP1-UAF1; 100 to 250 nM in test [1] (MDA-MB-436, viability); 250 to 10000 nM in test [2]; less than 100 nM with monoubiquitinated PCNA.

In the case of `CC(C)n1cc(C(F)(F)F)nc1-c1ccc(C(O)c2c[nH]c3cnc(-c4c(OC(F)F)ncnc4C4CC4)nc23)cc1` (stereo not drawn) [Compound 92], the IC50 at USP1-UAF1 is 30 to 100 nM; in test [1] (MDA-MB-436, viability) it was less than 100 nM; in the test on monoubiquitinated PCNA, less than 100 nM. For the same compound, the “HCC 1954 IC50 rel IC50” value in test [2] was “dd”.

With `COc1ncnc(C2CC2)c1-c1ncc2[nH]cc(Cc3cc(F)c(-n4nc(C(F)(F)F)cc4C)c(F)c3)c2n1` [Compound 162, 2-(4-cyclopropyl-6-methoxy-pyrimidin-5-yl)-7-[[3,5-difluoro-4-[5-methyl-3-(trifluoromethyl)pyrazol-1-yl]phenyl]methyl]-5H-pyrrolo[3,2-d]pyrimidine], the concentration for half-maximal inhibition (IC50) is less than 30 nM against USP1-UAF1; less than 100 nM in test [1] (MDA-MB-436, viability); no less than 10000 nM in test [2]; less than 100 nM with monoubiquitinated PCNA.

For `Cn1cc(C(F)(F)F)nc1-c1ccc(Cc2c[nH]c3cnc(-c4c(OC(F)F)ncnc4C4CC4)nc23)cc1` [Compound 138, 2-[4-cyclopropyl-6-(difluoromethoxy)pyrimidin-5-yl]-7-[[4-[1-methyl-4-(trifluoromethyl)imidazol-2-yl]phenyl]methyl]-5H-pyrrolo[3,2-d]pyrimidine], the IC50 against USP1-UAF1 is less than 30 nM; in test [1] (MDA-MB-436, viability), less than 100 nM; in test [2], no less than 10000 nM; in the test with monoubiquitinated PCNA, less than 100 nM.

`COc1ncnc(C2CC2)c1-c1ncc2[nH]cc(C(C)c3ccc(-c4nc(C(F)(F)F)cn4C)cc3)c2n1` (single isomer, unassigned) [Compound 89]: the concentration for half-maximal inhibition (IC50) against USP1-UAF1 was less than 30 nM; in test [1] (MDA-MB-436, viability) it was less than 100 nM; in test [2], 250 to 10000 nM; in the test on monoubiquitinated PCNA, less than 100 nM.

As for `COc1ncnc(C2CC2)c1-c1nc(C)c2[nH]cc(Cc3ccc(-c4nc(C(F)(F)F)cn4C)cc3)c2n1` [Compound 148, 2-(4-cyclopropyl-6-methoxy-pyrimidin-5-yl)-4-methyl-7-[[4-[1-methyl-4-(trifluoromethyl)imidazol-2-yl]phenyl]methyl]-5H-pyrrolo[3,2-d]pyrimidine], the IC50 on USP1-UAF1 is less than 30 nM; in test [1] (MDA-MB-436, viability) it was less than 100 nM; in test [2] it was no less than 10000 nM; with monoubiquitinated PCNA, less than 100 nM.

As to `COc1ncnc(C2(F)CC2)c1-c1ncc2[nH]cc(Cc3ccc(-c4nc(C(F)(F)F)cn4C)cc3)c2n1` [Compound 87], the IC50 is less than 30 nM at USP1-UAF1; less than 100 nM in test [1] (MDA-MB-436, viability); no less than 10000 nM in test [2]; less than 100 nM with monoubiquitinated PCNA.

`CC(C)c1ccccc1-c1ncc2c(n1)c(Cc1ccc(-c3nc(C(F)(F)F)cn3C)cc1)cn2CCO` [Compound 57, 2-[2-(2-isopropylphenyl)-7-[[4-[1-methyl-4-(trifluoromethyl)imidazol-2-yl]phenyl]methyl]pyrrolo[3,2-d]pyrimidin-5-yl]ethanol]: the IC50 against USP1-UAF1 was less than 30 nM; in test [1] (MDA-MB-436, viability) it was 250 to 10000 nM; in test [2], no less than 10000 nM; with monoubiquitinated PCNA, 100 to 250 nM.
